Results taken from ChEMBL document CHEMBL1201862, “PubChem BioAssay data set” (2004).
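Test compounds were applied to cells in 96-well plates for 48 hours at 5 doses. Abbreviation: GI50, concentration required for 50% inhibition of growth.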 The source made the active and inactive calls. Rule as the data show it: active = GI50 up to about 1.1 µM and inactive = higher.

What was measured:
Experiment in all cases: growth of human tumour cells (NCI), 48 h
[1] = system: 786-0
[2] = system: A498
[3] = system: A549
[4] = system: ACHN
[5] = system: BT-549
[6] = system: CAKI-1
[7] = system: CCRF-CEM
[8] = system: COLO 205
[9] = system: DLD-1
[10] = system: DMS-114
[11] = system: DMS-273
[12] = system: DU-145
[13] = system: EKVX
[14] = system: HCC 2998
[15] = system: HCT-116
[16] = system: HCT-15
[17] = system: HL-60
[18] = system: HOP-18
[19] = system: HOP-62
[20] = system: HOP-92
[21] = system: HT-29
[22] = system: Hs-578T
[23] = system: IGROV-1
[24] = system: K562
[25] = system: KM-20L2
[26] = system: KM12
[27] = system: LOX IMVI
[28] = system: LXFL 529
[29] = system: M14
[30] = system: MCF7
[31] = system: MDA-MB-231
[32] = system: MDA-MB-435
[33] = system: MDA-N
[34] = system: MOLT-4
[35] = system: Malme-3M
[36] = system: NCI-H226
[37] = system: NCI-H23
[38] = system: NCI-H460
[39] = system: NCI-H522
[40] = system: NCI/ADR-RES
[41] = system: OVCAR-3
[42] = system: OVCAR-4
[43] = system: OVCAR-5
[44] = system: OVCAR-8
[45] = system: PC-3
[46] = system: RPMI-8226
[47] = system: RXF 393
[48] = system: RXF 631
[49] = system: SF-268
[50] = system: SF-295
[51] = system: SF-539
[52] = system: SK-MEL-28
[53] = system: SK-MEL-2
[54] = system: SK-MEL-5
[55] = system: SK-OV-3
[56] = system: SN12C
[57] = system: SNB-19
[58] = system: SNB-75
[59] = system: SNB-78
[60] = system: SR
[61] = system: SW-620
[62] = system: T47D
[63] = system: TK-10
[64] = system: U-251
[65] = system: UACC-257
[66] = system: UACC-62
[67] = system: UO-31
[68] = system: XF498
[69] = system: M19-MEL

O=C1/C(=C/c2ccc(Cl)cc2)CCC1CN1CCOCC1 (stereo not given)
GI50 [1]: 2.48 µM (inactive)
GI50 [2]: 19.6 µM (inactive)
GI50 [3]: 27.4 µM (inactive)
GI50 [4]: 11.2 µM (inactive)
GI50 [5]: 11.3 µM (inactive)
GI50 [6]: 4.37 µM (inactive)
GI50 [7]: 1.13 µM (inactive)
GI50 [8]: 7.8 µM (inactive)
GI50 [9]: 2.52 µM (inactive)
GI50 [10]: 22.8 µM (inactive)
GI50 [11]: 3.06 µM (inactive)
GI50 [12]: 11.5 µM (inactive)
GI50 [13]: 12.2 µM (inactive)
GI50 [14]: 9.75 µM (inactive)
GI50 [15]: 4.2 µM (inactive)
GI50 [16]: 3.83 µM
GI50 [17]: 0.836 µM (active)
GI50 [18]: 13.9 µM (inactive)
GI50 [19]: 16.1 µM (inactive)
GI50 [20]: 3.96 µM (inactive)
GI50 [21]: 7.03 µM (inactive)
GI50 [22]: 4.31 µM (inactive)
GI50 [23]: 6.32 µM (inactive)
GI50 [24]: 1.86 µM (inactive)
GI50 [25]: 10.7 µM (inactive)
GI50 [26]: 3.33 µM (inactive)
GI50 [27]: 2.28 µM (inactive)
GI50 [28]: 2.58 µM (inactive)
GI50 [29]: 5.48 µM (inactive)
GI50 [30]: 3.77 µM (inactive)
GI50 [31]: 3.83 µM (inactive)
GI50 [32]: 4.6 µM (inactive)
GI50 [33]: 6.46 µM (inactive)
GI50 [34]: 1.12 µM (inactive)
GI50 [35]: 6.52 µM (inactive)
GI50 [36]: 20.6 µM (inactive)
GI50 [37]: 9.14 µM (inactive)
GI50 [38]: 14.9 µM (inactive)
GI50 [39]: 1.81 µM (inactive)
GI50 [40]: 4.88 µM (inactive)
GI50 [41]: 6.37 µM (inactive)
GI50 [42]: 17.5 µM (inactive)
GI50 [43]: 23.2 µM (inactive)
GI50 [44]: 6.68 µM (inactive)
GI50 [45]: 6.19 µM (inactive)
GI50 [46]: 0.818 µM (active)
GI50 [47]: 3.76 µM (inactive)
GI50 [48]: 8.36 µM (inactive)
GI50 [49]: 14.3 µM (inactive)
GI50 [50]: 17.5 µM (inactive)
GI50 [51]: 10.6 µM (inactive)
GI50 [52]: 8 µM (inactive)
GI50 [53]: 16.5 µM (inactive)
GI50 [54]: 12.5 µM (inactive)
GI50 [55]: 18 µM (inactive)
GI50 [56]: 3.78 µM (inactive)
GI50 [57]: 14.8 µM (inactive)
GI50 [58]: 20.5 µM (inactive)
GI50 [59]: 12.5 µM (inactive)
GI50 [60]: 0.687 µM (active)
GI50 [61]: 2.47 µM (inactive)
GI50 [62]: 0.678 µM (active)
GI50 [63]: 7.36 µM (inactive)
GI50 [64]: 15.9 µM (inactive)
GI50 [65]: 8.73 µM (inactive)
GI50 [66]: 5.51 µM (inactive)
GI50 [67]: 9.08 µM (inactive)
GI50 [68]: 2.55 µM (inactive)

c1ccc2c(CN3CCC(C4CCN(Cc5cccc6ccccc56)CC4)CC3)cccc2c1
GI50 [1]: 16 µM (inactive)
GI50 [3]: 38.3 µM (inactive)
GI50 [4]: 36.1 µM (inactive)
GI50 [8]: 1.72 µM (inactive)
GI50 [9]: 2.09 µM (inactive)
GI50 [10]: 2.64 µM (inactive)
GI50 [11]: 6.73 µM (inactive)
GI50 [14]: 1.09 µM (active)
GI50 [17]: 1.98 µM (inactive)
GI50 [18]: 40.1 µM (inactive)
GI50 [19]: 14.7 µM (inactive)
GI50 [21]: 3.11 µM (inactive)
GI50 [24]: 1.53 µM (inactive)
GI50 [25]: 2.81 µM (inactive)
GI50 [28]: 5.74 µM (inactive)
GI50 [29]: 1.92 µM (inactive)
GI50 [69]: 6.64 µM (inactive)
GI50 [34]: 5.7 µM (inactive)
GI50 [35]: 2.4 µM (inactive)
GI50 [38]: 19 µM (inactive)
GI50 [39]: 12.9 µM (inactive)
GI50 [41]: 39.7 µM (inactive)
GI50 [46]: 3.66 µM (inactive)
GI50 [47]: 11.9 µM (inactive)
GI50 [48]: 12.2 µM (inactive)
GI50 [50]: 7.64 µM (inactive)
GI50 [53]: 6.21 µM (inactive)
GI50 [54]: 4.22 µM (inactive)
GI50 [55]: 21.1 µM (inactive)
GI50 [56]: > 63 µM (inactive)
GI50 [59]: 23.7 µM (inactive)
GI50 [63]: 17.7 µM (inactive)
GI50 [64]: 11.3 µM (inactive)
GI50 [65]: 2.1 µM (inactive)
GI50 [66]: 5.64 µM (inactive)
GI50 [68]: 4.75 µM (inactive)

Nc1nc(N)c(-c2ccc(Cl)cc2)c(CCC(=O)Nc2cccc(C(F)(F)F)c2)n1
GI50 [1]: > 100 µM (inactive)
GI50 [2]: > 100 µM (inactive)
GI50 [3]: > 100 µM (inactive)
GI50 [4]: > 100 µM (inactive)
GI50 [6]: > 100 µM (inactive)
GI50 [7]: > 100 µM (inactive)
GI50 [8]: > 100 µM (inactive)
GI50 [9]: > 100 µM (inactive)
GI50 [10]: > 100 µM (inactive)
GI50 [11]: > 100 µM (inactive)
GI50 [13]: > 100 µM (inactive)
GI50 [14]: > 100 µM (inactive)
GI50 [15]: > 100 µM (inactive)
GI50 [16]: > 100 µM
GI50 [17]: > 100 µM (inactive)
GI50 [18]: > 100 µM (inactive)
GI50 [19]: > 100 µM (inactive)
GI50 [21]: > 100 µM (inactive)
GI50 [23]: > 100 µM (inactive)
GI50 [24]: > 100 µM (inactive)
GI50 [25]: > 100 µM (inactive)
GI50 [26]: > 100 µM (inactive)
GI50 [27]: > 100 µM (inactive)
GI50 [28]: > 100 µM (inactive)
GI50 [29]: > 100 µM (inactive)
GI50 [34]: > 100 µM (inactive)
GI50 [35]: > 100 µM (inactive)
GI50 [36]: > 100 µM (inactive)
GI50 [37]: > 100 µM (inactive)
GI50 [38]: > 100 µM (inactive)
GI50 [39]: > 100 µM (inactive)
GI50 [41]: > 100 µM (inactive)
GI50 [42]: > 100 µM (inactive)
GI50 [43]: > 100 µM (inactive)
GI50 [44]: > 100 µM (inactive)
GI50 [47]: > 100 µM (inactive)
GI50 [48]: > 100 µM (inactive)
GI50 [49]: > 100 µM (inactive)
GI50 [50]: > 100 µM (inactive)
GI50 [51]: > 100 µM (inactive)
GI50 [52]: > 100 µM (inactive)
GI50 [53]: > 100 µM (inactive)
GI50 [54]: > 100 µM (inactive)
GI50 [55]: > 100 µM (inactive)
GI50 [56]: > 100 µM (inactive)
GI50 [57]: > 100 µM (inactive)
GI50 [58]: > 100 µM (inactive)
GI50 [59]: > 100 µM (inactive)
GI50 [60]: > 100 µM (inactive)
GI50 [61]: > 100 µM (inactive)
GI50 [63]: > 100 µM (inactive)
GI50 [64]: > 100 µM (inactive)
GI50 [65]: > 100 µM (inactive)
GI50 [66]: > 100 µM (inactive)
GI50 [67]: > 100 µM (inactive)
GI50 [68]: > 100 µM (inactive)
